In patent US9155329B2, “Flavour compositions” (Givaudan Nederland Services B.V., priority 2005, dated 2015) one finds taste description data, which are given here for three molecules.

Experiment [1] can be described thus: Aqueous NaCl solution tasting by a sensory panel. As to conditions: solution B: 0.5% NaCl and 12 ppm substance; solution A (0.5% NaCl alone) described as salty. As for the experimental part:
Two aqueous solutions were prepared: • A. 0.5% NaCl • B. 0.5% NaCl and 12 ppm of N-lactoyl 2-amino-2-methyl-propanol (as prepared in Example 4)

Experiment [2] in a line: Carbonated orange flavoured soft drink evaluation. The following applies: compared to original drink. Here is the method:
Two different soft drinks A and B were prepared by adding respectively 40 ppb and 4 ppm of N-lactoyl 2-amino-2-methyl-propanol (as prepared in Example 4) to a commercially available carbonated orange flavoured soft drink.

For experiment [3] the following is noted: sample B: ice cream (8% vegetable fat) + strawberry flavour + 7 ppm substance, versus A without substance. As for the experimental part: […] ice cream (8% vegetable fat) samples were prepared: • A: Ice cream (see table 2)+strawberry flavour • B: Ice cream (see table 2)+strawberry flavour+7 ppm N-gluconyl 1-amino-2-methyl-2-propanol (as prepared in Example 5)
The ice creams were tasted by a professional panel.

How the values of experiment [4] were obtained:
Four yoghurt samples were prepared: • A: Yoghurt 0% fat+strawberry flavour+sucralose (25%) 300 ppm • B: Yoghurt 0% fat+strawberry flavour+sucralose (25%) 300 ppm+10 ppm N-gluconyl 2-amino-2-methyl-propanol (as prepared in Example 8) • C: Yoghurt 0% fat+strawberry flavour+4% sugar • D: Yoghurt 0% fat+strawberry flavour+4% sugar+10 ppm N-gluconyl 2-amino-2-methyl-propanol (as prepared in Example 8)
The yoghurts were tasted by a professional panel.

The conditions of experiment [5]: standard chicken soup dosed to 5 ppm substance, versus reference soup. As for the experimental part:
A standard chicken soup was prepared. The quantity was split in two. One part was kept as reference and the other part was dosed to contain 5 ppm of N-gluconyl 2-amino-2-methyl-propanol (as prepared in Example 8). The soups were tasted by a professional panel.

Read-outs that look alike come from different tables or passages of the source.

Turning to `CC(O)C(=O)NC(C)(C)CO` (stereo not shown) [N-lactoyl 2-amino-2-methyl-propanol, N-lactoyl 2-amino-2-methylpropanol], the taste description entry was ““high impact”, “bouillon”, “meaty”, “salty”, “umami” and “salivating”” in experiment [1]; “more natural, with a more juicy character than the original” in experiment [2] (sample A: 40 ppb substance in commercial carbonated orange flavoured soft drink); “tingling character typical of the flavour modulating substances of the present invention, which was judged as very pleasant and particularly well suited for the orange flavour” in experiment [2] (sample B: 4 ppm substance in commercial carbonated orange flavoured soft drink).

Regarding `CC(C)(O)CNC(=O)[C@H](O)[C@@H](O)[C@H](O)[C@H](O)CO` [N-gluconyl 1-amino-2-methyl-2-propanol], the taste description result in experiment [3] was “more round and natural taste, very clear sweet enhancement and increased creaminess”.

As to `CC(C)(CO)NC(=O)[C@H](O)[C@@H](O)[C@H](O)[C@H](O)CO` [N-gluconyl 2-amino-2-methyl-propanol, N-gluconyl 2-amino-2-methylpropanol], the taste description entry in experiment [4] (sample B: yoghurt 0% fat + strawberry flavour + sucralose (25%) 300 ppm + 10 ppm substance, compared to A without substance) was “fuller more round and natural taste, more sugar sweetness, significantly less bitter metallic aftertaste compared to A”; in experiment [4] (sample D: yoghurt 0% fat + strawberry flavour + 4% sugar + 10 ppm substance, compared to C without substance) it was “fuller more round and natural taste, more intense sweet compared to C”; in experiment [5], “more tasteful, more complete, more body, more fatty”.
